The results in this text go back to US12065442B2, “Tropomyosin receptor kinase (TRK) degradation compounds and methods of use” (Cullgen (Shanghai), Inc., priority 2018, dated 2024).

What is called IC50 is the midpoint of a concentration-inhibition curve.

“Also recorded” adds a separate entry of the source.

One assay relates to KM12 cells. As to the kind of experiment: Cell viability assay (CellTiter-Glo) in KM12 cells. It is filed as cell-based. The following applies: 500 nM, 12-point 2-fold serial dilution, 3 days (FIG. 4A). In general terms: ATP-based viability assays read luminescence as a measure of living cells.
`O=C1CCC(N2C(=O)c3cccc(NCCOCCOCCOCCC(=O)N4CCN(c5ccc(C(=O)Nc6n[nH]c7ccc(Cc8cc(F)cc(F)c8)cc67)c(NC6CCOCC6)c5)CC4)c3C2=O)C(=O)N1` (stereo not drawn) [CPD-057, N-(5-(3,5-Difluorobenzyl)-1H-indazol-3-yl)-4-(4-(3-(2-(2-(2-((2-(2,6-dioxopiperidin-3-yl)-1,3-dioxoisoindolin-4-yl)amino)ethoxy)ethoxy)ethoxy)propanoyl)piperazin-1-yl)-2-((tetrahydro-2H-pyran-4-yl)amino)benzamide]: the “viability of KM12 cells” value is listed as “inhibited the viability; also recorded: dose-dependently suppressed viability”.

The same assay, now with this note: Homo sapiens, 72 h; Table 2; KM12 cell viability, CellTiter-Glo, 3 days; read-out: IC50.
For `O=C1CCC(N2C(=O)c3cccc(NCCOCCOCCOCCOCCOCCC(=O)N4CCN(c5ccc(C(=O)Nc6n[nH]c7ccc(Cc8cc(F)cc(F)c8)cc67)c(NC6CCOCC6)c5)CC4)c3C2=O)C(=O)N1` (stereo not drawn) [CPD-054, N-(5-(3,5-difluorobenzyl)-1H-indazol-3-yl)-4-(4-(1-((2-(2,6-dioxopiperidin-3-yl)-1,3-dioxoisoindolin-4-yl)amino)-3,6,9,12,15-pentaoxaoctadecan-18-oyl)piperazin-1-yl)-2-((tetrahydro-2H-pyran-4-yl)amino)benzamide], the IC50 stood at 13 nM. Turning to `O=C1CCC(N2C(=O)c3cccc(NCC(=O)N4CCN(c5ccc(C(=O)Nc6n[nH]c7ccc(Cc8cc(F)cc(F)c8)cc67)c(NC6CCOCC6)c5)CC4)c3C2=O)C(=O)N1` (stereo not drawn) [CPD-055, N-(5-(3,5-difluorobenzyl)-1H-indazol-3-yl)-4-(4-((2-(2,6-dioxopiperidin-3-yl)-1,3-dioxoisoindolin-4-yl)glycyl)piperazin-1-yl)-2-((tetrahydro-2H-pyran-4-yl)amino)benzamide], the IC50 is 13 nM. `O=C1CCC(N2C(=O)c3cccc(NCCCCCC(=O)N4CCN(c5ccc(C(=O)Nc6n[nH]c7ccc(Cc8cc(F)cc(F)c8)cc67)c(NC6CCOCC6)c5)CC4)c3C2=O)C(=O)N1` (stereo not drawn) [CPD-056, N-(5-(3,5-difluorobenzyl)-1H-indazol-3-yl)-4-(4-(6-((2-(2,6-dioxopiperidin-3-yl)-1,3-dioxoisoindolin-4-yl)amino)hexanoyl)piperazin-1-yl)-2-((tetrahydro-2H-pyran-4-yl)amino)benzamide]: the IC50 was found to be 12 nM. Regarding `O=C1CCC(N2C(=O)c3cccc(NCCOCCOCCOCCC(=O)N4CCN(c5ccc(C(=O)Nc6n[nH]c7ccc(Cc8cc(F)cc(F)c8)cc67)c(NC6CCOCC6)c5)CC4)c3C2=O)C(=O)N1` (stereo not drawn) [CPD-057, N-(5-(3,5-Difluorobenzyl)-1H-indazol-3-yl)-4-(4-(3-(2-(2-(2-((2-(2,6-dioxopiperidin-3-yl)-1,3-dioxoisoindolin-4-yl)amino)ethoxy)ethoxy)ethoxy)propanoyl)piperazin-1-yl)-2-((tetrahydro-2H-pyran-4-yl)amino)benzamide], the IC50 was 6.4 nM. With `Cc1ncsc1-c1ccc(CNC(=O)[C@@H]2C[C@@H](O)CN2C(=O)[C@@H](NC(=O)COCCOCCOCC(=O)N2CCN(c3ccc(C(=O)Nc4n[nH]c5ccc(Cc6cc(F)cc(F)c6)cc45)c(NC4CCOCC4)c3)CC2)C(C)(C)C)cc1` [CPD-058, (2S,4R)-1-((S)-2-(tert-butyl)-14-(4-(4-((5-(3,5-Difluorobenzyl)-1H-indazol-3-yl)carbamoyl)-3-((tetrahydro-2H-pyran-4-yl)amino)phenyl)piperazin-1-yl)-4,14-dioxo-6,9,12-trioxa-3-azatetradecanoyl)-4-hydroxy-N-(4-(4-methylthiazol-5-yl)benzyl)pyrrolidine-2-carboxamide], the IC50 was over 1000 nM. For the molecule `O=C(CN1CCN(c2cccc(-c3cnc4ccc(N5CCC[C@@H]5c5cccc(F)c5)nn34)n2)CC1)NCCOCCOCCOCCNc1cccc2c1C(=O)N(C1CCC(=O)NC1=O)C2=O` (stereo partly drawn) [CPD-059, N-(2-(2-(2-(2-((2-(2,6-dioxopiperidin-3-yl)-1,3-dioxoisoindolin-4-yl)amino)ethoxy)ethoxy)-ethoxy)ethyl)-2-(4-(6-(6-((R)-2-(3-fluorophenyl)pyrrolidin-1-yl)imidazo[1,2-b]pyridazin-3-yl)pyridin-2-yl)piperazin-1-yl)acetamide], the IC50 was found to be 6 nM. The same measure, in the same setting: for `Cc1ncsc1-c1ccc(CNC(=O)[C@@H]2C[C@@H](O)CN2C(=O)[C@@H](NC(=O)CCCCCCCNC(=O)CN2CCN(c3ccc(C(=O)Nc4n[nH]c5ccc(Cc6cc(F)cc(F)c6)cc45)c(NC4CCOCC4)c3)CC2)C(C)(C)C)cc1` [CPD-061, (2S,4R)-1-((S)-2-(8-(2-(4-(4-((5-(3,5-Difluorobenzyl)-1H-indazol-3-yl)carbamoyl)-3-((tetrahydro-2H-pyran-4-yl)amino)phenyl)piperazin-1-yl)acetamido)octanamido)-3,3-dimethylbutanoyl)-4-hydroxy-N-(4-(4-methylthiazol-5-yl)benzyl)pyrrolidine-2-carboxamide] the value was over 1000 nM; for `O=C(CN1CCN(c2ccc(C(=O)Nc3n[nH]c4ccc(Cc5cc(F)cc(F)c5)cc34)c(NC3CCOCC3)c2)CC1)NCCNc1cccc2c1C(=O)N(C1CCC(=O)NC1=O)C2=O` (stereo not drawn) [CPD-062, N-(5-(3,5-difluorobenzyl)-1H-indazol-3-yl)-4-(4-(2-((2-((2-(2,6-dioxopiperidin-3-yl)-1,3-dioxoisoindolin-4-yl)amino)ethyl)amino)-2-oxoethyl)piperazin-1-yl)-2-((tetrahydro-2H-pyran-4-yl)amino)benzamide], 29 nM. On to `Cc1ncsc1-c1ccc(CNC(=O)[C@@H]2C[C@@H](O)CN2C(=O)[C@@H](NC(=O)CNC(=O)CN2CCN(c3ccc(C(=O)Nc4n[nH]c5ccc(Cc6cc(F)cc(F)c6)cc45)c(NC4CCOCC4)c3)CC2)C(C)(C)C)cc1` [CPD-063, (2S,4R)-1-((S)-2-(2-(2-(4-(4-((5-(3,5-Difluorobenzyl)-1H-indazol-3-yl)carbamoyl)-3-((tetrahydro-2H-pyran-4-yl)amino)phenyl)piperazin-1-yl)acetamido)acetamido)-3,3-dimethylbutanoyl)-4-hydroxy-N-(4-(4-methylthiazol-5-yl)benzyl)pyrrolidine-2-carboxamide], for which the IC50 is over 1000 nM. With `O=C(CN1CCN(c2ccc(C(=O)Nc3n[nH]c4ccc(Cc5cc(F)cc(F)c5)cc34)c(NC3CCOCC3)c2)CC1)NCCOCCOCCOCCNc1cccc2c1C(=O)N(C1CCC(=O)NC1=O)C2=O` (stereo not drawn) [CPD-064, N-(5-(3,5-difluorobenzyl)-1H-indazol-3-yl)-4-(4-(14-((2-(2,6-dioxopiperidin-3-yl)-1,3-dioxoisoindolin-4-yl)amino)-2-oxo-6,9,12-trioxa-3-azatetradecyl)piperazin-1-yl)-2-((tetrahydro-2H-pyran-4-yl)amino)benzamide], the 50% inhibitory concentration (IC50) was 14.9 nM. For the molecule `O=C(CN1CCN(c2ccc(C(=O)Nc3n[nH]c4ccc(Cc5cc(F)cc(F)c5)cc34)c(NC3CCOCC3)c2)CC1)NCCOCCOCCOCCOCCOCCNc1cccc2c1C(=O)N(C1CCC(=O)NC1=O)C2=O` (stereo not drawn) [CPD-065, N-(5-(3,5-difluorobenzyl)-1H-indazol-3-yl)-4-(4-(20-((2-(2,6-dioxopiperidin-3-yl)-1,3-dioxoisoindolin-4-yl)amino)-2-oxo-6,9,12,15,18-pentaoxa-3-azaicosyl)piperazin-1-yl)-2-((tetrahydro-2H-pyran-4-yl)amino)benzamide], the IC50 came out at 72.6 nM.

The same assay, now with this note: Homo sapiens, 72 h; Table 3; KM12 cell viability, CellTiter-Glo, 3 days; read-out: IC50.
For the molecule `CN1CCN(c2ccc(C(=O)Nc3n[nH]c4ccc(Cc5cc(F)cc(F)c5)cc34)c(NC3CCOCC3)c2)CC1` [Entrectinib, entrectinib, reference compound], the IC50 worked out at 4.3 nM. Take `OC1CCN(c2cc(-c3cccc(-c4cnc5ccc(N6CCC[C@@H]6c6cccc(F)c6)nn45)n3)ccn2)CC1` [GNF-8625, reference compound]: the IC50 came out at 46.7 nM. As to `O=C(CN1CCN(c2cccc(-c3cnc4ccc(N5CCC[C@@H]5c5cccc(F)c5)nn34)n2)CC1)NCCCCCCCCNc1cccc2c1C(=O)N(C1CCC(=O)NC1=O)C2=O` (stereo partly drawn) [TR-102, N-(8-((2-(2,6-dioxopiperidin-3-yl)-1,3-dioxoisoindolin-4-yl)amino)octyl)-2-(4-(6-(6-((R)-2-(3-fluorophenyl)pyrrolidin-1-yl)imidazo[1,2-b]pyridazin-3-yl)pyridin-2-yl)piperazin-1-yl)acetamide], the IC50 turned out to be 44.4 nM.
